Assay results taken from patent publication US10716797B2, “Steroid alkaloids and compositions and kits thereof” (priority 2013, dated 2020).
Where two headings read alike, the source gives them in different places.

Tests used:
[1] = test system: Staphylococcus aureus ATCC 29213; experiment: MIC by microdilution, compound alone or in combination with an aminoglycoside; type: cell-based; details: for potentiation / synergy with aminoglycoside (gentamicin) in words: S. aureus ATCC 29213; for MIC: Staphylococcus aureus, ATCC29213, 20 h; for Combination MIC vs ATCC29213 (MIC of gentamicin in combination with the compound): MIC of gentamicin alone 0.5 μg/mL; for MIC of aminoglycoside against S. aureus ATCC 29213 in combination with Compound 14: Compound 14 used at 4 μg/mL; for Potentiation fold with Compound 14: MIC aminoglycoside alone / MIC with Compound 14 at 4 μg/mL; for MIC vs ATCC29213: hydrochloride
Procedure: (§1) Method. The minimal inhibitory concentrations (MICs), (i.e. lowest concentration of an antimicrobial that will inhibit the visible growth of a microorganism after incubation), of test compounds were determined against the normal or SCV strains of bacterial species from the Firmicutes phylum. Briefly, MICs were determined using the microdilution method in 96-well plates (Clinical and Laboratory Standards Institute (CLSI), 2011). Bacteria were inoculated at ˜10^5-10^6 CFU/mL and incubated at 35° C. for 20 h (normal strains) or 48 h (SCVs) in brain heart infusion (BHI) broth in order to allow SCVs to reach maximal growth as previously described (Mitchell et al., 2012). Then OD595 nm was read on a microplate reader. […] In this example the range of compound concentrations tested was 0.03 to 64 μg/ml using doubling increments. Strain Staphylococcus aureus NewbouldΔhemB (hemB) was also used in the experiments and is a laboratory-derived stable SCV created by the insertion of the macrolide resistance gene ermA in the hemB gene of this strain to create the SCV phenotype (defective electron transport chain and respiratory deficiency) through inactivation of hemin biosynthesis (Brouillette et al., 2004).
The various antibacterial activities of the test compounds against Staphylococcus aureus ATCC 29213, alone or in combination with gentamicin, and alone against the SCV strain hemB are reported in Table 1.

[2] = test system: S. aureus SCV strain NewbouldΔhemB; experiment: MIC by microdilution against SCV strain; type: cell-based, Staphylococcus aureus; details: for Activity of the compounds against the SCV strain (class) / MIC vs SCV: compound tested alone, strain NewbouldΔhemB
Procedure: as §1, with “2004). […]” for “2004).”

[3] = test system: MRSA USA300; experiment: MIC by microdilution, alone or in combination, MRSA USA300; type: cell-based, Staphylococcus aureus; details: agent used alone
Procedure: as §1
(§2) In the present Example the range of compound concentrations tested, using doubling increments, was 0.03 to 64 μg/ml for Compound 14 and up to 1024 μg/ml for gentamicin (GEN), kanamycin (KAN) and cefalexin (CEF) when these compounds were used alone. Compound 14 (Cpd 14) was used at a fixed concentration of 4 μg/ml when added to other antibiotics. The combination of CEF and KAN was used in a 3:2 ratio and doubling increments were used to test the antibacterial activity against MRSA in the absence or presence of Compound 14.

[4] = test system: methicillin-resistant Staphylococcus aureus (MRSA) strains; experiment: MIC against MRSA strains; type: cell-based; details: Staphylococcus aureus, MRSA, used alone; tested MRSA strains (kanamycin: two of the strains)
Procedure: as §1, §2

[5] = test system: MRSA COL; experiment: MIC by microdilution, alone or in combination, MRSA COL; type: cell-based, Staphylococcus aureus; details: agent used alone
Procedure: as §1, §2

[6] = test system: MRSA USA100; experiment: MIC by microdilution, alone or in combination, MRSA USA100; type: cell-based, Staphylococcus aureus; details: agent used alone
Procedure: as §1, §2

[7] = test system: S. aureus hemB (SaR1); experiment: MIC against tomatidine-resistant SCV mutant SaR1; type: cell-based, Staphylococcus aureus; details: tomatidine-resistant mutant SaR1
Procedure: (§3) At each passage, using a microdilution method in 96-well microplates, S. aureus hemB was inoculated at ˜10^5-10^6 CFU/ml and incubated at 35° C. for 48 h. The range of tomatidine concentrations tested was 0.03 to 64 μg/ml using doubling increments. The concentration of gentamicin was fixed at 4 μg/mL when it was used in combination with tomatidine. At each passage, the minimal inhibitory concentrations (MICs) (i.e. lowest concentration of an antimicrobial that inhibits the visible growth of bacteria), of tomatidine was determined. The bacteria used as inoculum for the next passage were from the well preceeding the well showing the MIC (i.e. the well containing half the MIC). At each passage, the population of bacteria serving as the inoculum for the next passage was spread on BHI agar plates and three isolated colonies were collected and frozen until used for whole-genome sequencing.

[8] = test system: S. aureus hemB (SaR2); experiment: MIC against tomatidine-resistant SCV mutant SaR2; type: cell-based, Staphylococcus aureus; details: tomatidine-resistant mutant SaR2
Procedure: as §3

[9] = test system: Listeria monocytogenes (strain ATCC 13932); experiment: Time-kill experiments, Listeria monocytogenes; type: cell-based
Procedure: Time-kill experiments were performed in order to determine whether the effect of test compounds or the combination with an aminoglycoside on Listeria monocytogenes (strain ATCC 13932) is bacteriostatic (prevents growth) or bactericidal (kills cells).
At several time points during growth at 35° C. (225 RPM), bacteria were sampled, serially diluted and plated on Brain Hearth Infusion agar (BHIA) for colony-forming unit (CFU) determinations (i.e., viable bacterial counts). Plates were incubated for 24 h at 35° C. It represents the results of three independent experiments.

[10] = MIC gentamicin alone / MIC gentamicin with compound at 8 μg/mL
[11] = compound tested alone, read-out: MIC vs ATCC29213
[12] = Staphylococcus aureus, read-out: MIC vs SCV
[13] = read-out: MIC of aminoglycoside against S. aureus ATCC 29213, aminoglycoside alone
[14] = Staphylococcus aureus, read-out: MIC
[15] = S. aureus hemB (SCV strain NewbouldΔhemB)

In the case of `CCCCNC(C)[C@H]1CC[C@H]2[C@@H]3CC[C@H]4C[C@@H](O)CC[C@]4(C)[C@H]3CC[C@]12C.Cl` (mixture of isomers) [Compound 48, 3β-Hydroxy-20-butylamino-5α-pregnane hydrochloride], the “potentiaton fold with gentamicin” value [1, 10] is reported as 8 x, the “potentiation / synergy with aminoglycoside (gentamicin) in words” value (from here on “potentiation / synergy”) [1] is reported as “strong or moderate synergy” and the MIC [1, 11] is reported as 64 µg/mL. The “potentiation activity with gentamicin in words” value (shortened to “potentiation activity”) ([1]; compound used at 8 μg/mL) was “High”, the “Combination MIC vs ATCC29213 (MIC of gentamicin in combination with the compound)” value (“Combination MIC vs ATCC29213” for short) ([1]; compound used at 8 μg/mL) was 0.06 and the MIC [2, 12] was 4 to 8 µg/mL. The “Activity of the compounds against the SCV strain (class)” value (shortened to “Activity of the compounds”) [2] was “Moderate (MIC = 0.5-4 μg/mL: moderate activity)”.
`CC(C)CCNC(C)[C@H]1CC[C@H]2[C@@H]3CC[C@H]4C[C@@H](O)CC[C@]4(C)[C@H]3CC[C@]12C.Cl` (mixture of isomers) [Compound 50, 3β-Hydroxy-20-isopentylamino-5α-pregnane hydrochloride] was tested, and the “potentiaton fold with gentamicin” value [1, 10] was 4 x, the “potentiation / synergy” value [1] was “strong or moderate synergy” and the MIC [1, 11] was > 64 µg/mL. For the same compound, the “potentiation activity” value ([1]; compound used at 8 μg/mL) was “Moderate”, the “Combination MIC vs ATCC29213” value ([1]; compound used at 8 μg/mL) was 0.12 and the MIC [2, 12] was > 8 µg/mL. For the same compound, the “Activity of the compounds” value [2] was “Low (MIC = ≥8 μg/mL: low activity)”.
With `NCC[C@H](O)C(=O)N[C@@H]1C[C@H](N)[C@@H](O[C@H]2O[C@H](CN)[C@@H](O)[C@H](O)[C@H]2O)[C@H](O)[C@H]1O[C@H]1O[C@H](CO)[C@@H](O)[C@H](N)[C@H]1O` [Amikacin, reference compound] the “MIC of aminoglycoside against S. aureus ATCC 29213 in combination with Compound 14” value (“MIC of aminoglycoside … with Compound 14” for short) [1] was 0.25 µg/mL, the “Potentiation fold with Compound 14” value [1] was 16 fold and the MIC [1, 13] was 4 µg/mL.
In the case of `CC1=C(C(=O)O)N2C(=O)[C@@H](NC(=O)[C@H](N)c3ccccc3)[C@H]2SC1` [Cefalexin, cefalexin], the MIC [3, 14] is reported as 256 µg/mL, the MIC [4] is reported as 256 µg/mL and the MIC [5, 14] is reported as 256 µg/mL. The MIC [6, 14] was 256 µg/mL.
For `C[C@H]1CC[C@]2(NC1)O[C@H]1C[C@H]3[C@@H]4CC[C@H]5CC(NCCCCN)CC[C@]5(C)[C@H]4CC[C@]3(C)[C@H]1[C@@H]2C.Cl.Cl.Cl` (stereo partly shown) [Compound 16, 3-(N-aminobutyl)-aminotomatidine hydrochloride], the “potentiaton fold with gentamicin” value ([1]; MIC gentamicin alone / MIC gentamicin with compound at 4 μg/mL) was 4-8 x, the “potentiation / synergy” value [1] was “retain the ability to potentiate” and the “activity vs ATCC29213 in words” value ([1]; compound tested alone) was “Active”. For the same compound, the “MIC vs ATCC29213” value ([1]; compound tested alone) was 16 µg/mL, the “potentiation activity” value ([1]; compound used at 4 μg/mL) was “Moderate-high” and the “Combination MIC vs ATCC29213” value ([1]; compound used at 4 μg/mL) was 0.06-0.12. For the same compound, the “Activity of the compounds” value [2] was “Moderate (MIC = 0.5-4 μg/mL: moderate activity)” and the “MIC vs SCV” value [2] was 0.5 µg/mL.
`C[C@H]1CC[C@]2(NC1)O[C@H]1C[C@H]3[C@@H]4CC[C@H]5CC(NCCCCCCN)CC[C@]5(C)[C@H]4CC[C@]3(C)[C@H]1[C@@H]2C.Cl.Cl.Cl` (stereo partly shown) [Compound 18, 3-(N-aminohexyl)-aminotomatidine hydrochloride] was tested, and the “potentiaton fold with gentamicin” value [1, 10] was 2-4 x, the “potentiation activity” value ([1]; compound used at 8 μg/mL) was “Moderate” and the “Combination MIC vs ATCC29213” value ([1]; compound used at 8 μg/mL) was 0.12-0.25. For the same compound, the “Activity of the compounds” value [2] was “Moderate (MIC = 0.5-4 μg/mL: moderate activity)” and the “MIC vs SCV” value [2] was 1 µg/mL.
`NC[C@H]1O[C@H](O[C@H]2[C@H](O)[C@@H](O[C@H]3O[C@H](CO)[C@@H](O)[C@H](N)[C@H]3O)[C@H](N)C[C@@H]2N)[C@H](O)[C@@H](O)[C@@H]1O` [Kanamycin, kanamycin, reference compound] was tested, and the “MIC of aminoglycoside … with Compound 14” value [1] was 0.25 µg/mL, the “Potentiation fold with Compound 14” value [1] was 16 fold and the MIC [1, 13] was 4 µg/mL. The MIC [3, 14] was > 1020 µg/mL, the MIC [5, 14] was 4 µg/mL and the MIC [6, 14] was 256 µg/mL.
With `[H]/N=C(/N)N[C@H]1[C@H](O)[C@@H](O)[C@H](O[C@@H]2O[C@@H](C)[C@](O)(C=O)[C@H]2O[C@@H]2O[C@@H](CO)[C@H](O)[C@@H](O)[C@@H]2NC)[C@@H](N/C(N)=N\[H])[C@@H]1O` [Streptomycin, reference compound] the “MIC of aminoglycoside … with Compound 14” value [1] was 1 µg/mL, the “Potentiation fold with Compound 14” value [1] was 4-8 fold and the MIC [1, 13] was 4 to 8 µg/mL.
With `NC[C@H]1O[C@H](O[C@H]2[C@H](O)[C@@H](O[C@H]3O[C@H](CO)[C@@H](O)[C@H](N)[C@H]3O)[C@H](N)C[C@@H]2N)[C@H](N)C[C@@H]1O` [Tobramycin, reference compound] the “MIC of aminoglycoside … with Compound 14” value [1] was 0.125 µg/mL, the “Potentiation fold with Compound 14” value [1] was 8 fold and the MIC [1, 13] was 1 µg/mL.
For “Tomatidine hydrochloride [Compound 3, reference compound]”, the “MIC vs ATCC29213” value ([1]; compound tested alone) was >64 µg/mL, the “MIC vs ATCC29213” value ([1]; compound tested alone, listed as tomatidine hydrochloride salt) was > 64 µg/mL and the “potentiation activity” value ([1]; compound used at 8 μg/mL) was “High”. For the same compound, the “Combination MIC vs ATCC29213” value ([1]; compound used at 8 μg/mL) was 0.06, the MIC [2, 15] was 0.0625 µg/mL and the “Activity of the compounds” value [2] was “High (MIC = 0.06-0.25 μg/mL: high activity)”. For the same compound, the “MIC vs SCV” value [2] was 0.06 µg/mL, the MIC [7] was >32 µg/mL and the MIC [8] was >32 µg/mL. The “effect in time-kill in combination with gentamicin” value ([9]; 8 μg/ml with 2 μg/ml gentamicin) was “not seen” and the “effect on growth in time-kill (CFU)” value ([9]; used alone at 8 μg/ml) was “does not affect the growth”.
gentamicin [reference compound] was tested, and the “MIC of aminoglycoside against S. aureus ATCC 29213, aminoglycoside alone” value ([1]; aminoglycoside alone) was 0.5 µg/mL, the MIC [2, 15] was 4 to 8 µg/mL and the MIC [7] was 4 to 8 µg/mL. For the same compound, the MIC [3] was 0.5 µg/mL, the MIC [8] was 16 µg/mL and the MIC [5] was 0.25 µg/mL. The MIC [6] was 0.5 µg/mL.
